In paper PMC7845594, “Novel Immune Modulators Enhance Caenorhabditis elegans Resistance to Multiple Pathogens” (mSphere, 2021):
Values joined by “and” are separate entries in the source; they are usually repeats but may differ in a detail not shown here. Equal values may be shown once.

Legend:
[1] = system: C. elegans exposed to P. aeruginosa strain PA14; assay: P. aeruginosa slow-killing assay (agar); assay type: in vivo, Caenorhabditis elegans; settings: for Rescue in slow killing on disruption of the PMK-1 MAPK pathway: pmk-1 or atf-7 RNAi; for Survival in slow-killing assay vs DMSO: wild-type young adult worms
Text: The finding that each of the compounds activated PMK-1/p38 MAPK targets was of interest, as this pathway is associated with enhanced immunity against multiple bacterial pathogens in agar-based C. elegans assays. Therefore, we tested whether these compounds could promote survival in an agar-based, high-colonization pathogenesis model known as slow killing. Loss of PMK-1 activity substantially compromises survival in the slow-killing assay ([16], [47]). Wild-type, young adult worms were exposed to P. aeruginosa strain PA14 on agar plates impregnated with each of the five compounds. […] To see whether this depended upon the PMK-1 pathway, LK32, LK38, and LK56 were retested in worms where RNAi was used to knock down pmk-1/MAPK or atf-7/ATF7 (a key transcription factor whose activity is modulated by PMK-1 [63, 64]) (Fig. 9; see Table S2 in the supplemental material for TD50 and overall statistical significance).
FIG 8 Four LK molecules extend C. elegans life span in the slow-killing assay. […] The data shown are from a representative replicate. Each of the three biological replicates was comprised of three plates per condition, with each plate containing ∼60 worms. Statistical significance was calculated using a log-rank test. Worms that left the surface of the plate were excluded from analysis (see Table S2 in the supplemental material for TD50 and exact P values).
FIG 9 Rescue in slow killing by a subset of LK compounds depends upon the PMK-1/p38 MAPK pathway. Wild-type L4 worms were reared on RNAi targeting pmk-1/p38 MAPK, atf-7/ATF-7, or empty vector and placed onto slow-killing plates containing DMSO or LK32 (A and B), LK38 (C and D), or LK56 (E and F) at 50 µM. Starting at 24 h, worms were scored every 12 h for survival until all worms perished. Each of the three biological replicates was comprised of three plates, each plate contained approximately 50 to 70 worms. Statistical significance was calculated using log-rank test (see Table S2 in the supplemental material for TD50 and exact P values). For vector RNAi, DMSO versus compound, P < 0.001 for LK38, LK56, and LK32.
Supplementary file : FIG S5 NSY-1 and SEK-1, upstream members of the PMK-1/p38 MAPK pathway, are required for LK38-mediated rescue. Young adult wild-type, nsy-1/MAP3K15(ag3), or sek-1/MAP2K6(km-4) mutants were exposed to P. aeruginosa in the slow-killing assay in the presence of DMSO or LK38. Data for each condition at each time point represent the average value for three plates from one representative replicate (of three replicates total). Each plate contained ∼60 worms. P values were calculated using a log-rank test (see Table S2 in the supplemental material for the TD50 and exact P values). For wild-type DMSO versus LK38 P < 0.001. No statistically significant difference was measured between LK38 and DMSO for either mutant. Download FIG S5, PDF file, 0.1 MB.
Slow-killing (SK) plates were made as previously reported ([92]). Compounds were added to molten SK agar before pouring plates. After solidifying, 40 µl of PA14 overnight culture was spread on plates before incubating plates at 37°C for 24 h, followed by 25°C for 24 h. 5-fluoro-2′-deoxyuridine (FUDR) (0.1 mg/ml) was dropped on plates 30 min prior to picking worms, to ensure nematode sterility. Fifty to seventy L4-stage, wild-type worms were picked onto plates and scored every 12 h after the first 24 h, until all worms were dead. Three biological replicates were performed.

[2] = system: glp-4(bn2) worms exposed to methicillin-resistant S. aureus strain MRSA131; assay: S. aureus infection assay (liquid); assay type: in vivo, Caenorhabditis elegans; settings: for S. aureus EC: glp-4(bn2) worms, 96 h, ± 95% confidence interval
Description: Enterococcus faecalis and Staphylococcus aureus are Gram-positive bacterial species frequently responsible for nosocomial infections ([24], [25]). These bacterial species readily infect C. elegans and liquid-based pathogenesis models have been developed for each ([26][–][28]). Sterile, young adult glp-4(bn2) worms were incubated with either E. faecalis or S. aureus and various concentrations of the five compounds. […] Importantly, P. aeruginosa, E. faecalis, and S. aureus use very different mechanisms to kill C. elegans (pyoverdine-mediated mitochondrial damage, gelatinase-mediated damage to the colonized intestine, and multi-toxin-mediated intestinal effacement and damage, respectively) ([29][–][33]). The ability of these compounds to rescue against multiple pathogens that utilize a diverse set of virulence factors and mechanisms of pathogenesis further supports the idea that at least a portion of these compounds’ activity is mediated by stimulating innate immunity.
FIG 2 A subset of LK molecules rescue against E. faecalis and S. aureus. […] Compounds were serially diluted 2-fold, and young adult glp-4(bn2) worms were incubated with the pathogen for 80 h (E. faecalis) or 96 h (S. aureus). The concentrations shown are based on the mean value for at least three replicates. (B and C) Percentages of dead C. elegans after exposure to E. faecalis (B) or S. aureus (C). A representative biological replicate is shown. Each condition included at least six wells per replicate, each well contained approximately 20 worms. Three biological replicates were performed. *, P < 0.05; **, P < 0.01; ***, P < 0.001. P values were calculated using Student’s t test. Error bars represent the standard error of the mean.
The S. aureus killing assay was performed as previously described with some changes ([26]). A single colony was used to inoculate a 5-ml aerobic culture of TSB. The following day, 100 µl of this culture was used to inoculate a second 10 ml of TSB culture wrapped with parafilm. Then, 384-well plates were made containing 10% TSB, and S. aureus from the second culture was resuspended in S Basal medium to a final OD of 0.04. Compounds were then serially diluted in a DMSO-S Basal solution to achieve the desired concentration in the wells with a 1% DMSO final concentration for all compounds. After 5 days, the worms were transferred to new plates using a 0.05% Tween solution to prevent S. aureus biofilm background fluorescence from obscuring dead worms. Subsequent washing, staining, imaging, and image analysis were performed identically to Pseudomonas liquid killing. EC values were defined as the minimum concentration that provided statistically significant rescue. At least three biological replicates were performed.

[3] = vector RNAi, 50 µM, Fig 9 panels A-B, C, E
[4] = wild-type worms, 50 µM, Fig 8 (DMSO 58.9)
[5] = vector RNAi, 50 µM, Fig 9 panels D, F

Compound | TD50, slow killing ([1]; atf-7 RNAi, 50 µM, Fig 9) | TD50, slow killing ([1]; pmk-1 RNAi, 50 µM, Fig 9) | Rescue in slow killing on disruption of the PMK-1 MAPK pathway ([1]; 50 µM) | TD50, slow killing [1, 3] | Survival in slow-killing assay vs DMSO ([1]; 50 µM) | S. aureus EC [2] | TD50, slow killing [1, 4] | TD50, slow killing ([1]; N2 wild-type, Fig S5) | TD50, slow killing ([1]; nsy-1(ag3) mutant, Fig S5) | TD50, slow killing ([1]; sek-1(km4) mutant, Fig S5) | TD50, slow killing [1, 5] | Need of MDT-15 for rescue (mdt-15(RNAi)) ([2]; S. aureus, 32 µM)
COC(=O)/C=C/C(=O)Nc1ccccc1 [LK32] | 46.2 h | 45.6 h | retained at least partial ability to rescue | 59.1 h | improved survival | > 64 µM |  |  |  |  |  | 
CNC(=O)Oc1c(Br)cc2sc(=O)oc2c1Br [LK34] |  |  |  |  | improved survival | 42.7 µM and 42.7 ± 11.4 µM |  |  |  |  |  | 
CCN(CC)/N=N/c1ccc(C(=O)O)cc1 [LK35] |  |  |  |  | not significant | > 64 µM | 57.5 h |  |  |  |  | 
CN(C)/N=N/c1ccc(-c2cn(Cc3ccccc3)cn2)cc1 [LK38] | 36.8 h | 35.6 h | completely dependent upon the PMK-1/MAPK pathways | 65.2 h | improved survival | > 64 µM | 59.5 h | 59.5 h | 26.5 h | 27.6 h | 53.5 h | 
O=c1cc(CNc2ccc(Br)cc2)nc2sccn12 [LK56] | 38.5 h | 38.0 h | retained at least partial ability to rescue | 59.9 h | improved survival | 56 µM and 56 ± 12.8 µM | 60.5 h |  |  |  | 56.1 h | required
